Measurements as given in patent publication US20060148104A1, “Detection of ion channel or receptor activity” (Massachusetts Institute of Technology, priority 2004, published 2006).
pKd: −log10 of the molar value. “Also recorded” adds a separate entry of the source. Ends that are not written are not given here.

Assays:
TRPV3-EGFP-cc [1] = assay: whole-cell patch clamp recordings, HEK293T cells transiently transfected with TRPV3-EGFP-cc; format: cell-based, Mouse; conditions: 100 μM 2APB
From the text: (§1) Cloning of TRPV3, TRPV1 and P2X2 into the EGFP-cc and EGFP-barstar vectors. The multiple cloning site (MCS) 3′ of the EGFP-C1 vector is not affected by the heptad repeat or barstar insertion described above, i.e., the restriction sites at the 3 prime end of EGFP are identical to the original EGFP-C1 clone. This MCS was used to clone each of three different ion channel subunits in-frame with the EGFP-heptad repeat module or EGFP-barstar module that had been inserted into the EGFP-C1 vector. Mouse TRPV3 cDNA was amplified either from total mouse cDNA or from plasmids containing the appropriate subunit sequence by PCR using the following primers: […]
(§2) Transient transfection of COS and HEK cells. COS or HEK cells were transfected using Lipofectamine 2000 (Invitrogen) according to the manufacture's protocol. In brief, 2 μg of the respective DNA plasmid were incubated for 30 min with 6 μl of Lipofectamine in 200 μl of Optimem medium (Gibco) at room temperature. Cells were incubated with the DNA-Lipofectamine complex for 3 h at 37 degrees Celsius in 500 μl Optimem medium. Afterwards the medium was replaced with DMEM containing 10% FCS. Cells were assayed for expression and activity of the engineered ion channels 24-48 h after transfection.
(§3) Characterization of functional activity of engineered ion channel subunits. […]

TRPV3-EGFP = assay: whole-cell patch clamp recordings, HEK293T cells transiently transfected with TRPV3-EGFP; format: cell-based, Mouse; conditions: 100 μM 2APB
From the text: as §1, §2, §3

EGFP-cc = assay: pull-down of EGFP-cc from cell lysate by functionalized nanoparticles, Western blot; format: binding; conditions: for pull-down / binding of EGFP-cc: lysate of cells expressing EGFP-cc, anti-EGFP Western blot
From the text: Nanoparticle synthesis and conjugation. Dye-doped silica nanoparticles containing the fluorescent dye tris (2,2′-bipyridine) dichlororuthenium (II) hexahydrate) (Ru(bpy)) were synthesized following the reverse microemulsion procedure described by Tan and coworkers (35). These particles are approximately 40 nm in diameter and can be dispersed in de-ionized water. To impart biocompatibility (stability in PBS and other physiological buffers), particles were coated with bovine serum albumin (BSA) by mixing the nanoparticles in aqueous solution with an equal volume of freshly prepared BSA solution (1% weight in water). The mixture was incubated at room temperature for 1 h, after which it was brought to a standard PBS concentration by addition of an appropriate amount of concentrated PBS solution (10× PBS) and left standing overnight at room temperature. Excess BSA was then removed by repeated cycles of centrifugation (12 min at 9,500 rpm), removal of the supernatant and resuspension in PBS (a step involving bath sonication for a few minutes).
Conjugation of the nanoparticles to the recognition domain peptide CGG-(KVSALKE)3, (SEQ ID NO: 44) which contains a three amino acid spacer (CGG) followed by three copies of the KVSALKE (SEQ ID NO: 1) heptad sequence (cc, custom synthesized by the MIT biopolymer lab) was achieved using commercial crosslinking chemistry. Amine groups on the surface of BSA-coated nanoparticles (there are 35 lysine groups accessible at the surface of each BSA molecule) were activated by transferring the nanoparticles to a solution of 10 μM or 100 μM freshly prepared MBS (an amine-to-thiol crosslinker, available from Pierce Biotechnology) in PBS. After 20 min incubation, nanoparticles were washed by centrifugation and resuspension in a conjugation buffer (PBS at pH 7 and 1 mM EDTA). Since the recognition peptide contains a cysteine (chosen for conjugation), reduction of possible disulfide bonds was performed (using TCEP reducing gel, Pierce Biotechnology) before addition to the activated nanoparticles. Conjugation was completed by adding the reduced peptide at a concentration of 10 μM or 100 μM to nanoparticles activated with MBS at the same respective concentrations. After peptide addition, nanoparticles were incubated overnight in a gently rotating tube at 4° C., after which they were washed 3 times in PBS.
HEK 293T cells were transiently transfected with a construct encoding either EGFP or the EGFP-cc construct containing (EVSALEK)4 (SEQ ID NO: 4) fused to the N-terminus of EGFP as described in Example 6. 2×10^6 cells were lysed in 200 μl Lysis buffer (PBS, pH7.4 with 1% Triton-X100) and afterwards diluted with 800 μl PBS to obtain 1 ml of cell lysate with 0.2% Triton-X100. Pull-down experiments were performed by incubating 100 μL of nanoparticles with 900 μL of cell lysate for one hour at 4° C. (with gentle rotation). Particles were then centrifuged (12 min at 9,500 rpm) and the supernatant removed. After brief washing of the pellet with 100 μL of PBS, particles were resuspended by sonication in 50 μL of PBS and the resulting solution analyzed by Western blot using antibodies to EGFP (Covance) according to standard methods.

TRPV3-EGFP-cc [2] = assay: pull-down of engineered ion channel subunit TRPV3-EGFP-cc from cell lysate by functionalized nanoparticles, Western blot; format: binding, Mouse
Method: Nanoparticle synthesis and conjugation. These were performed as described in the previous example.
Pull-down experiments. These were performed essentially as described in the previous example except that (i) two different ratios of peptides/nanoparticle (10 μM or 100 μM peptide) were used to test their effect on binding ability; and (ii) lysates were made from cells that expressed engineered ion channel subunits TRPV3-EGFP-cc and TRPV3-EGFP, which are described in Example 6.

COS cells = assay: FRET-based calcium sensing inside living COS cells (quantum dots + Calcium Crimson); format: cell-based; conditions: 405 nm laser; COS cells with internalized quantum dots and Calcium Crimson
Method: Quantum dot nanoparticles with an absorption peak at ˜405 nm and an emission peak at ˜580 nm (“Birch Yellow, Type 2”, Evident Corp.) were internalized by COS cells that had been previously loaded with a calcium-sensitive dye with absorption ˜580 nm, emission ˜620 nm (Calcium Crimson; Invitrogen N. C-3018). Dye loading was performed according to the directions of the manufacturer, and electroporation was used to enhance nanoparticle uptake. Live cells were illuminated with a 405 nm laser and emission from the sample was collected through a narrow bandgap filter centered around 620 nm. […] Since the calcium-sensitive dye cannot be excited by the 405 nm laser, their activation is due to FRET from the nanoparticles. The image is a snapshot from a movie taken at mid-plane section of a cell via confocal microscopy.

[3] = target: complementary peptides EIAALEK-EIAALEK-EIAALEK / KIAALKE-KIAALKE-KIAALKE; conditions: heterodimer (78); read-out: dissociation constant; cited from earlier work

Molecule: NCCOB(c1ccccc1)c1ccccc1 [2APB]
- reversibility of the 2APB effect (TRPV3-EGFP-cc [1]): quickly washed out
- response of cells to application of 2APB (whole-cell current) (TRPV3-EGFP-cc [1]; voltage ramp −100 mV to +100 mV, compared with TRPV3-EGFP): responded similarly
- reversibility of the 2APB effect (TRPV3-EGFP): quickly washed out
- response of cells to application of 2APB (whole-cell current) (TRPV3-EGFP; voltage ramp −100 mV to +100 mV, compared with TRPV3-cc): responded similarly

Molecule: NP-cc: BSA-coated Ru(bpy) dye-doped silica nanoparticles (~40 nm) conjugated to recognition peptide CGG-(KVSALKE)3 (SEQ ID NO: 44) (CGGKVSALKEKVSALKEKVSALKE; also: Cys crosslinked to BSA-coated Ru(bpy) dye-doped silica nanoparticles)
- dependence of amount of EGFP-cc pulled down on amount of peptide conjugated (EGFP-cc; different amounts of CGG-(KVSALKE)3 conjugated, data not shown): proportional to the number of heptad repeat peptides conjugated to the nanoparticles
- pull-down / binding of EGFP-cc (EGFP-cc): only NP-cc can pull down EGFP-cc; also recorded: confirm the binding
- pull-down / binding of EGFP-cc (EGFP-cc; listed as functionalized nanoparticles): strong band at the position expected for EGFP-cc
- pull-down of EGFP-cc (EGFP-cc; nanoparticles conjugated with 10 μm peptide): did not result in detectable pull-down
- pull-down of EGFP-cc (EGFP-cc; nanoparticles conjugated with 100 μm peptide): presence of EGFP-cc
- binding to ion channel subunit containing the complementary target domain (TRPV3-EGFP-cc [2]; lysate of cells expressing TRPV3-EGFP-cc, anti-EGFP Western blot): confirm the binding
- pull-down of TRPV3-EGFP-cc (TRPV3-EGFP-cc [2]; nanoparticles conjugated with 10 μM peptide (lane 6)): only a small amount of pull-down

Molecule: C/C=C(/C)C(=O)O[C@H]1C(C)=C2[C@H]([C@@H]1OC(=O)CCCCCCC)[C@@](C)(OC(C)=O)C[C@H](OC(=O)CCC)[C@@]1(O)[C@H]2OC(=O)[C@@]1(C)O [thapsigargin]
- emission at 620 nm upon addition of compound (calcium signal by FRET) (COS cells): flashes of light (orange dots) were detected only in the immediate vicinity of the nanoparticles

Molecule: EIAALEK-EIAALEK-EIAALEK (SEQ ID NO: 5) and KIAALKE-KIAALKE-KIAALKE (SEQ ID NO: 6) (chain 1 EIAALEKEIAALEKEIAALEK; chain 2 KIAALKEKIAALKEKIAALKE; Complementary peptides) [IAAL-E3/K3 coiled-coil]
- pKd [3]: 7.15
